From US12290510B2, “Polyvalent derivatives of emoxypine” (Riesner Verwaltungs GMBH, priority 2019, dated 2025)
“And” between values parts separate entries of the source, which are not always exact repeats. Identical values can stand only once.

Assays:
[1] = biological target: T1, α-synuclein fibrils (Homo sapiens, UniProt P37840); test: Disaggregation of α-synuclein fibrils, thioflavin T (ThT) fluorescence emission at 482 nm; type: biochemical
Method: FIG. 1A depicts emission intensity of ThT at 482 nm (λexc=450 nm), in the presence of α-synuclein amyloids fibrils, with and without MHP-tren triimine (r70, light blue trace and yellow trace, respectively) from 1 minute to 3 days (72 h), where the bars from left to right in each set of histograms represents: control ThT; MHP tren-triimine; Aggregates+ThT+MHP tren-triimine; control ThT+MHP tren-triimine; and Aggregates+ThT, respectively.
FIG. 2 depicts emission intensity of ThT at 482 nm (λexc=450 nm), in the presence of α-synuclein amyloids fibrils, using Emoxypine r200, Emoxypine r100, MHP-tren triimine (also known as tri imino-emoxypine) r70 (light blue trace and yellow trace, respectively) from 1 minute to 3 days (72 h), where the bars from left to right in each set of histograms represents: α-synuclein+Emoxypine r200; α-synuclein+Emoxypine r100; and α-synuclein+MHP tren-triimine r70, respectively. The far leftmost bar of the graph, titled “Before addition of SOM” represents a sample without emoxypine or MHP tren-triimine, i.e. with 100% of α-synuclein aggregates left.
Disaggregation of α-synuclein fibrils using MHP-tren triimine (i.e., tri imino-emoxypine) was studied. The ratio of MHP-tren triimine:α-synuclein was 70 (r70).
Fluorescence measurements were performed by comparing the emission of thiovlavin T (ThT) in the presence of aggregates, without and with MHP-tren triimine at different times after the addition of MHP-tren triimine, from one minute to several days (λ emission of interest=482 nm, λ excitation=450 nm). Fluorescent measurements were also performed by comparing the emission of thiovlavin T (ThT) in the presence of aggregates and either emoxypine or MHP-tren triimine. The results (see, FIG. 1A-1B, FIG. 2 and Tables 1-2, below) show higher solubilization percentages using MHP-tren triimine as compared to emoxypine. […] The long-term efficiency of the triimine molecule is therefore better than that of its triamide analogue.

[2] = biological target: T1, α-synuclein fibrils; test: Scanning electron microscope (SEM) images of α-synuclein fibrils without and with the triimine; conditions: sample with the triimine molecule (FIG. 3B) vs “superaggregated” structures without (FIG. 3A)

Compound | Percent of Solubilization ([1]; r100, 1 min) | Percent of Solubilization ([1]; r100, 30 min) | Percent of Solubilization ([1]; r100, 1 h) | Percent of Solubilization ([1]; r100, 24 h) | Percent of Solubilization ([1]; r100, 48 h) | Percent of Solubilization ([1]; r100, 72 h) | Percent of Solubilization ([1]; r200, 1 min) | Percent of Solubilization ([1]; r200, 30 min) | Percent of Solubilization ([1]; r200, 1 h) | Percent of Solubilization ([1]; r200, 24 h) | Percent of Solubilization ([1]; r200, 48 h) | Percent of Solubilization ([1]; r200, 72 h) | Percentage of solubilization ([1]; MHP-tren triimine:α-synuclein ratio 70 (r70), 1 min after addition) | Percentage of solubilization ([1]; r70, 30 min after addition) | Percentage of solubilization ([1]; r70, 1 h after addition) | Percentage of solubilization ([1]; r70, 24 h after addition) | Percentage of solubilization ([1]; r70, 48 h after addition) | Percentage of solubilization ([1]; r70, 72 h (3 days) after addition) | Appearance of α-synuclein sample in SEM images [2]
CCc1nc(C)ccc1O [Emoxypine, emoxypine] | 50% | 59% | 48% | 53% | 49% | 62% | 69% | 65% | 61% | 60% | 61% | 63% | – | – | – | – | – | – | –
Cc1ccc(O)c(/C=N/CCN(CC/N=C/c2nc(C)ccc2O)CC/N=C/c2nc(C)ccc2O)n1 [MHP-tren triimine, tri imino-emoxypine] | – | – | – | – | – | – | – | – | – | – | – | – | 27% | 47.1% and 57% | 71% | 72.8% and 73% | 79.5% and 79% | 86% and 86.1% | no apparent fiber or big aggregates-only small dots are visible
